From patent publication US20260174778A1, “SULFONAMIDE COMPOUND, AND PREPARATION METHOD THEREFOR AND USE THEREOF” (SHANGHAI HENLIUS BIOTECH, INC., priority 2023, published 2026)
Where two headings read alike, the source gives them in different places.

Experiments:
[1] = system: breast cancer cell line ZR-75-1; experiment: Inhibition of proliferation of breast cancer cell line ZR-75-1 (CellTiter-Glo); format: cell-based; conditions: Homo sapiens, 240 h, proliferation of ZR-75-1 cells, 10 days of incubation, read-out: IC50 (KAT6A)
Source text: Test Example 1: Experiment for Determining Inhibitory Effects of Compounds on Proliferation of Breast Cancer Cell Line ZR-75-1
ATP is an indicator of the metabolism of living cells. The CellTiter-Glo® Luminescent Cell Viability Assay is a homogeneous assay method for determining the number of viable cells by quantifying ATP.
• 1) ZR-75-1 (Cell Bank of Chinese Academy of Sciences, TCHul26) • 2) RPMI-1640 medium (Gibco, 11875-093) • 3) Fetal Bovine Serum, New Zealand (Gibco,10091-148) • 4) Penicillin-streptomycin (10,000 U/mL) (Gibco, 15140-122) • 5) Trypsin-EDTA (0.25%), containing phenol red (Gibco, 25200-072) • 6) DPBS (Shanghai BasalMedia, B210KJ) • 7) Corning® 96-well Clear Flat Bottom Ultra-Low Attachment Microplate (Corning, Cat. No. 3474) • 8) 330 μL 96 Holes Deep Well Plate, transparents, 96 Round Holes, V-shaped Bottom, Low Retention (Stellar Scientific, DP33VR-9-NS) • 9) Corning® 96-well solid white flat-bottom polystyrene microplate (Corning, Cat. No. 3917) • 10) CellTiter-Glo® Luminescent Cell Viability Assay (Promega, G7573) • 11) Countstar® BioMed automatic cell counter • 12) Trypan blue solution, 0.4% (Gibco, Cat. No. 15250061) • 13) 37° C. constant-temperature incubator (Thermo, FORMA STERI-CYCLE i160 LK) • 14) Biosafety cabinet (Thermo, 1379)
• 1) The formula of the complete medium for ZR-75-1 was as follows: 500 mL RPMI-1640+10% FBS+1% penicillin-streptomycin. • 2) Thirty minutes before cell plating, the complete medium, serum, trypsin, and DPBS for use in ZR-75-1 cell culture were pre-warmed in a water bath at 37° C. • 3) The ZR-75-1 cells were taken out of the incubator, and the medium was removed by pipetting. The cells were rinsed once with 5 mL of DPBS, and then the DPBS was discarded. • 4) The cells in the T75 culture flask were digested with 1-3 mL of (0.25%) trypsin-EDTA. After the trypsin was added, the culture flask was incubated in an incubator at 37° C. for 2-5 min, and dispersion was confirmed by microscopic examination. Tapping or agitating the culture flask was avoided to prevent disturbing the cells, which might cause cell clumping. • 5) 9 mL of the complete medium was added to terminate the digestion, thus forming a cell suspension, which was then mixed well by pipetting. • 6) Cell suspension counting: 20 μL of the cell suspension was pipetted and diluted with 20 µL of the 0.4% trypan blue solution (Gibco, Cat. No. 15250061). The total cell count and the percentage of cell viability were determined using the Countstar® BioMed automatic cell counter. Only cells with a cell viability of no less than 95% were used for the experiment. • 7) The concentration of the cell suspension was adjusted to 2000 cells/well, and the cell suspension was added to a 96-well cell culture plate at 80 μL/well. Treatment of Cells with Compounds • 1) Twenty-four hours after cell plating, the cell plate was taken out. • 2) Each compound was prepared with a complete medium. The stock solution was a 10 mM solution in DMSO, which was first diluted with the medium to 100 μM, then diluted to 1 μM, and finally subjected to a 5-fold serial dilution across a total of 9 concentration gradients. • 3) 20 μL of the compound diluted with the medium was added to each well of the cell culture plate, which already contained 80 μL of the medium. The final concentration started at 200 nM, followed by a 5-fold serial dilution across a total of 9 concentration gradients. Two replicate wells were set for each compound, and each plate could be used to test 3 compounds, with the DMSO content controlled within 0.5%. • 4) The culture medium was replenished once every three days with a complete medium containing the same concentration of the test compound, with 20 μL/well added each time.
After 10 days of incubation with the compound, the cell culture plate was taken out, and the CellTiter-Glo® reagent was added at 50 μL/well. […]

[2] = Pharmacokinetics in SD (Sprague Dawley) rats; format: in vivo; conditions: rat, plasma, female SD rats; for half-life: read-out: T1/2 (half-life) (converted)
Protocol: Test Example 3: Determination of Pharmacokinetic Data of Compounds in SD (Sprague Dawley) Rats
The pharmacokinetic characteristics of some of the compounds of the present disclosure were evaluated by a pharmacokinetic experiment in SD rats.
Female SD rats aged 6-8 weeks from Shanghai Jihui Laboratory Animal Care Co., Ltd. were selected. The test animals were fasted overnight before administration, and feeding was resumed 4 h after administration. The compounds were dissolved in 5% DMSO+5% Tween 80+90% normal saline. For a single intravenous administration, the administration dose was 1 mg/kg, and the administration volume was 2 mL/kg. For a single intragastric administration, the administration dose was 2 mg/kg, and the administration volume was 10 mL/kg. Blood was collected at 0.083 h (for intravenous administration only), 0.25 h, 0.5 h, 1 h, 2 h, 4 h, 8 h, and 24 h after administration. At each indicated time point, about 150 μL of blood sample was collected from each rat via the vein and placed into an EDTA-K2 tube. Each sample was centrifuged (2000 g, 4° C., 5 min) within 15 min after sample collection to obtain plasma, which was then stored at −70° C. until analysis. The concentration of the corresponding test compound in the SD rat plasma was determined using UPLC-MS/MS.

SMILES: COc1ccc2c(c1S(=O)(=O)Nc1noc3cc(Cn4cccn4)c(F)c(OC)c13)OCCC21CCC1 [Compound 72, N-(6-((1H-Pyrazol-1-yl)methyl)-5-fluoro-4-methoxybenzo[d]isoxazol-3-yl)-7-methoxyspiro[chromane-4,1′-cyclobutane]-8-sulfonamide]
- IC50 [1]: 0.5 to 2 nM

SMILES: COc1ccc2c(c1S(=O)(=O)Nc1noc3cc(Cn4cccn4)c(F)c(OC)c13)OCCC21CCCC1 [Compound 73, N-(6-((1H-Pyrazol-1-yl)methyl)-5-fluoro-4-methoxybenzo[d]isoxazol-3-yl)-7-methoxyspiro[chromane-4,1′-cyclopentane]-8-sulfonamide]
- IC50 [1]: 0.5 to 2 nM

SMILES: COc1ccc2c(c1S(=O)(=O)Nc1noc3cc(Cn4cccn4)cc(OC)c13)OCCC2(F)F [Compound 102, N-(6-((1H-Pyrazol-1-yl)methyl)-4-methoxybenzo[d]isoxazol-3-yl)-4,4-difluoro-7-methoxychromane-8-sulfonamide]
- IC50 [1]: 0.5 to 2 nM

SMILES: COc1cc(Cn2cccn2)cc2onc(NS(=O)(=O)c3c(F)ccc4c3OCCC4(F)F)c12 [Compound 103, N-(6-((1H-Pyrazol-1-yl)methyl)-4-methoxybenzo[d]isoxazol-3-yl)-4,4,7-trifluorochromane-8-sulfonamide]
- IC50 [1]: 10 to 50 nM

SMILES: COc1ccc2c(c1S(=O)(=O)Nc1noc3cc(Cn4cccn4)c(F)c(OC)c13)OCCC2(F)F [Compound 104, N-(6-((1H-Pyrazol-1-yl)methyl)-5-fluoro-4-methoxybenzo[d]isoxazol-3-yl)-4,4-difluoro-7-methoxychromane-8-sulfonamide]
- AUC(0-inf) ([2]; iv, i.v. 1 mg/kg): 4200 ng·h/mL
- clearance ([2]; iv, i.v. 1 mg/kg, read-out: CL (clearance rate)): 3.98 mL/min/kg
- half-life ([2]; iv, i.v. 1 mg/kg): 2.83 h
- Vd ([2]; iv, i.v. 1 mg/kg, read-out: Vdss (apparent volume of distribution)): 0.705 L/kg
- AUC(0-inf) ([2]; po, p.o. 2 mg/kg): 6110 ng·h/mL
- bioavailability ([2]; po, p.o. 2 mg/kg, read-out: F (bioavailability)): 72.7%
- half-life ([2]; po, p.o. 2 mg/kg): 2.13 h
- IC50 [1]: < 0.5 nM

SMILES: COc1c(F)c(Cn2cccn2)cc2onc(NS(=O)(=O)c3c(F)ccc4c3OCCC4(F)F)c12 [Compound 105, N-(6-((1H-Pyrazol-1-yl)methyl)-5-fluoro-4-methoxybenzo[d]isoxazol-3-yl)-4,4,7-trifluorochromane-8-sulfonamide]
- IC50 [1]: 10 to 50 nM

SMILES: COc1ccc2c(c1S(=O)(=O)Nc1noc3cc(Cn4cccn4)c(F)c(OC)c13)OCC=C2C [Compound 106, N-(6-((1H-Pyrazol-1-yl)methyl)-5-fluoro-4-methoxybenzo[d]isoxazol-3-yl)-7-methoxy-4-methyl-2H-chromene-8-sulfonamide]
- IC50 [1]: < 0.5 nM

SMILES: COc1ccc2c(c1S(=O)(=O)Nc1noc3cc(Cn4cccn4)c(F)c(OC)c13)OCCC2O (stereo not drawn) [Compound 107, N-(6-((1H-Pyrazol-1-yl)methyl)-5-fluoro-4-methoxybenzo[d]isoxazol-3-yl)-4-hydroxy-7-methoxychromane-8-sulfonamide]
- IC50 [1]: 0.5 to 2 nM

SMILES: COc1c(F)c(Cn2cccn2)cc2onc(NS(=O)(=O)c3ccccc3OC3CCC3)c12 [Compound 108, N-(6-((1H-Pyrazol-1-yl)methyl)-5-fluoro-4-methoxybenzo[d]isoxazol-3-yl)-2-cyclobutoxybenzenesulfonamide]
- IC50 [1]: 0.5 to 2 nM

SMILES: COc1ccc2c(c1S(=O)(=O)Nc1noc3cc(Cn4cccn4)c(F)c(OC)c13)OCCN2 [Compound 111, N-(6-((1H-Pyrazol-1-yl)methyl)-5-fluoro-4-methoxybenzo[d]isoxazol-3-yl)-7-methoxy-3,4-dihydro-2H-benzo[b][1,4]oxazine-8-sulfonamide]
- IC50 [1]: < 0.5 nM

SMILES: COc1ccc2c(c1S(=O)(=O)Nc1noc3cc(Cn4cccn4)c(F)c(OC)c13)OCCN2Cc1ccccc1 [Compound 112, N-(6-((1H-Pyrazol-1-yl)methyl)-5-fluoro-4-methoxybenzo[d]isoxazol-3-yl)-4-benzyl-7-methoxy-3,4-dihydro-2H-benzo[b][1,4]oxazine-8-sulfonamide]
- IC50 [1]: 2 to 10 nM

SMILES: COc1ccc2c(c1S(=O)(=O)Nc1noc3cc(Cn4cccn4)c(F)c(OC)c13)OCCN2CC(F)(F)F [Compound 120, N-(6-((1H-Pyrazol-1-yl)methyl)-5-fluoro-4-methoxybenzo[d]isoxazol-3-yl)-7-methoxy-4-(2,2,2-trifluoroethyl)-3,4-dihydro-2/-benzo[b][1,4]oxazine-8-sulfonamide]
- IC50 [1]: 2 to 10 nM

SMILES: COc1cccc(OC)c1S(=O)(=O)Nc1noc2cc(Cn3cccn3)c(F)c(OC)c12 [PF-0128, reference compound]
- IC50 [1]: 0.5 to 2 nM

SMILES: COc1cccc(OC)c1S(=O)(=O)Nc1noc2cc(Cn3cccn3)cc(OC)c12 [PF-9363, reference compound]
- IC50 [1]: 0.5 to 2 nM
